Measurements: ChEMBL document CHEMBL5724914, “Linking interpersonal differences in gut microbiota composition and drug biotransformation activity” (2024)

What was measured:
[1] = The drug is tested on WLS-073 corresponding to human gut metagenome with ENA study accession number: PRJEB37062 and ENA sample accession number: ERS12561749 for biotransformation under anaerobic condition. The drug concentrations were measured over 9 timepoints collected between 0 and 24 hours of incubation by liquid-chromatography-coupled mass spectrometry (LC–MS); conditions: 2 µM
[2] = human gut metagenome, 24 h, 2 µM
[3] = human gut metagenome, 24 h, 2 µM; remark: listed apart in the source
[4] = The drug is tested on WLS-038 corresponding to human gut metagenome with ENA study accession number: PRJEB37062 and ENA sample accession number: ERS12561745 for biotransformation under anaerobic condition. The drug concentrations were measured over 9 timepoints collected between 0 and 24 hours of incubation by liquid-chromatography-coupled mass spectrometry (LC–MS); conditions: 2 µM
[5] = The drug is tested on Z-005 corresponding to metagenome with ENA study accession number: PRJEB37062 and ENA sample accession number: ERS12561805 for biotransformation under anaerobic condition. The drug concentrations were measured over 9 timepoints collected between 0 and 24 hours of incubation by liquid-chromatography-coupled mass spectrometry (LC–MS); conditions: 2 µM
[6] = The drug is tested on WLS-098 corresponding to human gut metagenome with ENA study accession number: PRJEB37062 and ENA sample accession number: ERS12561754 for biotransformation under anaerobic condition. The drug concentrations were measured over 9 timepoints collected between 0 and 24 hours of incubation by liquid-chromatography-coupled mass spectrometry (LC–MS); conditions: 2 µM
[7] = The drug is tested on Z-001 corresponding to mouse gut metagenome with ENA study accession number: PRJEB37062 and ENA sample accession number: ERS12561801 for biotransformation under anaerobic condition. The drug concentrations were measured over 9 timepoints collected between 0 and 24 hours of incubation by liquid-chromatography-coupled mass spectrometry (LC–MS); conditions: 2 µM
[8] = human gut metagenome, 24 h, 2 µM; remark: listed apart in the source
[9] = The drug is tested on WLS-240 corresponding to human gut metagenome with ENA study accession number: PRJEB37062 and ENA sample accession number: ERS12561773 for biotransformation under anaerobic condition. The drug concentrations were measured over 9 timepoints collected between 0 and 24 hours of incubation by liquid-chromatography-coupled mass spectrometry (LC–MS); conditions: 2 µM
[10] = human gut metagenome, 24 h, 2 µM; remark: listed apart in the source
[11] = human gut metagenome, 24 h, 2 µM; remark: listed apart in the source
[12] = human gut metagenome, 24 h, 2 µM; remark: listed apart in the source
[13] = The drug is tested on WLS-350 corresponding to human gut metagenome with ENA study accession number: PRJEB37062 and ENA sample accession number: ERS12561789 for biotransformation under anaerobic condition. The drug concentrations were measured over 9 timepoints collected between 0 and 24 hours of incubation by liquid-chromatography-coupled mass spectrometry (LC–MS); conditions: 2 µM
[14] = The drug is tested on Z-022 corresponding to mouse gut metagenome with ENA study accession number: PRJEB37062 and ENA sample accession number: ERS12561821 for biotransformation under anaerobic condition. The drug concentrations were measured over 9 timepoints collected between 0 and 24 hours of incubation by liquid-chromatography-coupled mass spectrometry (LC–MS); conditions: 2 µM
[15] = The drug is tested on WLS-006 corresponding to human gut metagenome with ENA study accession number: PRJEB37062 and ENA sample accession number: ERS12561741 for biotransformation under anaerobic condition. The drug concentrations were measured over 9 timepoints collected between 0 and 24 hours of incubation by liquid-chromatography-coupled mass spectrometry (LC–MS); conditions: 2 µM
[16] = human gut metagenome, 24 h, 2 µM; remark: listed apart in the source
[17] = human gut metagenome, 24 h, 2 µM; remark: listed apart in the source
[18] = The drug is tested on Z-025 corresponding to rabbit gut metagenome with ENA study accession number: PRJEB37062 and ENA sample accession number: ERS12561824 for biotransformation under anaerobic condition. The drug concentrations were measured over 9 timepoints collected between 0 and 24 hours of incubation by liquid-chromatography-coupled mass spectrometry (LC–MS); conditions: 2 µM
[19] = The drug is tested on Z-017 corresponding to mouse gut metagenome with ENA study accession number: PRJEB37062 and ENA sample accession number: ERS12561816 for biotransformation under anaerobic condition. The drug concentrations were measured over 9 timepoints collected between 0 and 24 hours of incubation by liquid-chromatography-coupled mass spectrometry (LC–MS); conditions: 2 µM
[20] = The drug is tested on Z-030 corresponding to mouse gut metagenome with ENA study accession number: PRJEB37062 and ENA sample accession number: ERS12561829 for biotransformation under anaerobic condition. The drug concentrations were measured over 9 timepoints collected between 0 and 24 hours of incubation by liquid-chromatography-coupled mass spectrometry (LC–MS); conditions: 2 µM
Further: call rule not given here.

Structure (SMILES)	Bacterial Biotransformation [1]	Bacterial Biotransformation [2]	Bacterial Biotransformation [3]	Bacterial Biotransformation [4]	Bacterial Biotransformation [5]	Bacterial Biotransformation [6]	Bacterial Biotransformation [7]	Bacterial Biotransformation [8]	Bacterial Biotransformation [9]	Bacterial Biotransformation [10]	Bacterial Biotransformation [11]	Bacterial Biotransformation [12]	Bacterial Biotransformation [13]	Bacterial Biotransformation [14]	Bacterial Biotransformation [15]	Bacterial Biotransformation [16]	Bacterial Biotransformation [17]	Bacterial Biotransformation [18]	Bacterial Biotransformation [19]	Bacterial Biotransformation [20]
CNNCc1ccc(C(=O)NC(C)C)cc1 [PROCARBAZINE]	Compound NOT metabolized	Compound NOT metabolized	Compound NOT metabolized	Compound NOT metabolized	Compound NOT metabolized	Compound metabolized	Compound NOT metabolized	Compound metabolized	Compound metabolized	Compound metabolized	Compound NOT metabolized	Compound metabolized	Compound NOT metabolized	Compound metabolized						
COCCCC/C(=N\OCCN)c1ccc(C(F)(F)F)cc1.O=C(O)/C=C\C(=O)O [FLUVOXAMINE MALEATE]	Compound NOT metabolized	Compound NOT metabolized	Compound NOT metabolized	Compound NOT metabolized		Compound NOT metabolized	Compound metabolized	Compound NOT metabolized	Compound NOT metabolized	Compound NOT metabolized	Compound metabolized	Compound metabolized	Compound NOT metabolized		Compound metabolized	Compound NOT metabolized	Compound metabolized			
O=C1CCc2ccc(OCCCCN3CCN(c4cccc(Cl)c4Cl)CC3)cc2N1 [ARIPIPRAZOLE]					Compound metabolized		Compound NOT metabolized							Compound metabolized				Compound metabolized	Compound metabolized	Compound NOT metabolized
O=C1N=C([O-])NC1(c1ccccc1)c1ccccc1.[Na+] [PHENYTOIN SODIUM]	Compound NOT metabolized	Compound metabolized	Compound NOT metabolized	Compound NOT metabolized	Compound NOT metabolized	Compound metabolized	Compound NOT metabolized	Compound NOT metabolized	Compound metabolized	Compound metabolized	Compound NOT metabolized	Compound metabolized	Compound metabolized		Compound metabolized	Compound metabolized	Compound metabolized	Compound NOT metabolized	Compound NOT metabolized	
CN1CCN(C2=Nc3ccccc3Oc3ccc(Cl)cc32)CC1.O=C(O)CCC(=O)O [LOXAPINE SUCCINATE]	Compound NOT metabolized	Compound NOT metabolized	Compound NOT metabolized	Compound NOT metabolized		Compound NOT metabolized		Compound NOT metabolized	Compound NOT metabolized	Compound NOT metabolized	Compound NOT metabolized	Compound NOT metabolized	Compound NOT metabolized		Compound NOT metabolized	Compound NOT metabolized	Compound NOT metabolized			
CC(=O)SCC(Cc1ccccc1)C(=O)NCC(=O)OCc1ccccc1 (configuration not stated) [RACECADOTRIL]					Compound metabolized		Compound metabolized							Compound metabolized				Compound metabolized	Compound metabolized	Compound metabolized
CN(C/C=C/C#CC(C)(C)C)Cc1cccc2ccccc12 [TERBINAFINE]		Compound NOT metabolized	Compound NOT metabolized		Compound NOT metabolized	Compound NOT metabolized	Compound NOT metabolized	Compound metabolized	Compound NOT metabolized	Compound NOT metabolized	Compound NOT metabolized	Compound NOT metabolized	Compound metabolized			Compound NOT metabolized	Compound NOT metabolized		Compound NOT metabolized	Compound NOT metabolized
CC(=O)Oc1ccc(C(c2ccc(OC(C)=O)cc2)c2ccccn2)cc1 [BISACODYL]	Compound metabolized	Compound metabolized	Compound metabolized	Compound metabolized		Compound metabolized		Compound metabolized	Compound metabolized	Compound metabolized	Compound metabolized	Compound metabolized	Compound metabolized		Compound metabolized	Compound metabolized	Compound metabolized			
